{"source": "patent US12616753B2", "about": "“HSP70 inhibitors and methods of using same” (THE WISTAR INSTITUTE, priority 2020, dated 2026)", "key": {"[1]": {"biological_target": "N-terminal HIS tagged HSP70 (Homo sapiens, UniProt P0DMV8)", "sequence (P0DMV8 whole entry)": "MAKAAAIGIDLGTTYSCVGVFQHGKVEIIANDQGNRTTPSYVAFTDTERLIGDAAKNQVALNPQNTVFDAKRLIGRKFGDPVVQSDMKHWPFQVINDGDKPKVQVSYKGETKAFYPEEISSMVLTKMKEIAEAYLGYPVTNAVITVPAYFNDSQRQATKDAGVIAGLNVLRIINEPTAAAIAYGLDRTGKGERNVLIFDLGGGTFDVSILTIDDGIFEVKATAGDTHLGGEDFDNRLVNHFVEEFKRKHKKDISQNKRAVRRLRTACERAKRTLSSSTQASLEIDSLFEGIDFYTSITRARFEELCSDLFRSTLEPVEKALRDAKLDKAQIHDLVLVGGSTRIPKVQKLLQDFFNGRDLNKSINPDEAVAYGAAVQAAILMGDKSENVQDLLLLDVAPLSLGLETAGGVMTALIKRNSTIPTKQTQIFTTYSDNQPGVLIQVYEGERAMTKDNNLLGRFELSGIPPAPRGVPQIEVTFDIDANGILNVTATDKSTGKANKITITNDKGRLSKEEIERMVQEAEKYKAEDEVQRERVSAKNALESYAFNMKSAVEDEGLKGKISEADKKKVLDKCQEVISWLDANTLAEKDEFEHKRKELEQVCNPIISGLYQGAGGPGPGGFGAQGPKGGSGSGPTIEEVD", "test": "Small molecule binding to HSP70 using SPR (Biacore T200)", "experimental": "SPR experiments were conducted using the Biacore T200. Approximately 20,000 RU of N-terminal HIS tagged HSP70 was immobilized on a multi-dentate NTA derivatized linear carboxylate sensor chip (NICH1500M, Xantec Bioanalytics). The running buffer was PBS containing 2 mM MgCl2, 0.05% Tween, and 5% DMSO. Test compounds were diluted at 20× final concentration in 100% DMSO and then diluted into running buffer without DMSO so that the DMSO concentrations in both the sample and the running buffer were similar. Flow rate was 30 μL/min, contact time for each sample concentration was 30 seconds, followed by a 60 second dissociation time. Data were analyzed using the Biacore evaluation software and the resulting sensograms exported and re-plotted in GraphPad Prism.\nThe next studies sought to determine whether AP-4-139B interacts directly with HSP70. To accomplish this, full-length His-tagged human HSP70 was used, and it was immobilized on a high affinity poly-Ni-NTA sensor chip for surface plasmon resonance experiments on a Biacore T200. This HSP70-loaded chip was incubated with AP-4-139B or the negative control VY-3-277. As a positive control the adenosine-derived HSP70 inhibitor Ver-155008 was used (Massey et al., Cancer Chemother Pharmacol. 2010 August; 66(3):535-45)."}, "Pharmacokinetics in mice": {"test": "Pharmacokinetics in mice", "type": "in vivo", "conditions": "10 mg/kg", "source_text": "FIGS. 8A-8E show HSP70 inhibition is effective on mouse CRC cell lines. FIG. 8A: Association of HSPA1A gene expression and survival rate of patients with colorectal adenocarcinoma (COAD). Patient data was gathered from USCS Xena platform (GDC-TCGA COAD; n=435). Log-rank test was used to determine significance. p=0.0004. FIG. 8B: Association of HSPA1A gene expression and stage of COAD (n=440). Wilcoxon rank sum test was used to determine significance. * p<0.05, *** p<0.001. FIG. 8C: Body weights of mice injected with HT-29 tumor xenografts. Weights were measured at the start of the treatment to determine mouse toxicity. n.s. not significant, n=10 mice per group. FIG. 8D: H&E staining of livers and colons of mice injected with HT-29 tumor xenografts. Tissues were collected at the end of the study. FIG. 8E. Pharmacokinetic values of AP-4-139B in the liver, plasma, and brain from three CDI mice treated with 10 mg/kg of compound."}, "mutant p53 and MRPS14": {"system": "mutant p53 and MRPS14", "test": "Western blot in mouse CRC cell lines", "type": "cell-based", "conditions": "10 μM, 24 or 48 hours", "experimental": "(§1) FIGS. 5A-5F show AP-4-139B is efficacious against CRC in an immunocompetent model, and causes immune cell recruitment. FIGS. 5A-5B: Mouse CRC cell lines, MC38 (FIG. 5A) and CT26 (FIG. 5B), were plated at a density of 1,000 cells per well in 96-well plates. The next day, cells were treated with the indicated inhibitors for 72 hours. Cells were then subjected to the Alamar Blue cell viability assays. Shown are representative IC50 values of an average of six technical replicates and two biological replicates. FIG. 5C: Mouse CRC cell lines MC38 and CT26 were treated with 10 μM AP-4-139B for 24 or 48 hours and immunoblotted for HSP70, p53, AKT, Cleaved Lamin A (CLA), Cleaved Caspase 3, MRPS14, and GAPDH (loading control). The doublet detected for HSP70 is seen in other murine cell lines, and may represent a degradation product or post-translational modification. FIG. 5D: 1×10^6 MC38 cells were injected subcutaneously into the right flank of 6-8 week old male C57Bl/6 mice. Once tumors reached an approximate volume of 50 mm^3, mice were separated randomly into two groups: vehicle vs. AP-4-139B. Mice were treated with 10 mg/kg AP-4-139B every 48 hours. All mice were euthanized 20 days after the start of treatment. Tumor volumes were recorded using digital calipers and using the formula v=length×width^2×0.52. *** p<0.001. n=15 mice per group."}, "MC38 tumors": {"system": "MC38 tumors", "test": "Syngeneic model of MC38 tumors in C57Bl/6 mice", "type": "in vivo, mouse", "conditions": "10 mg/kg every 48 hours", "experimental": "as §1\nFIG. 5E: Immunohistochemistry (IHC) analysis of MC38 tumors treated with AP-4-139B. Shown are representative images (4-6 random fields of view per condition from four independent tumors) of CD8^+ T cells and Granzyme B (marker for activated immune cells). Respective IgG antibody was used as the negative control. Scale bars=100 μm. FIG. 5F: Quantification of FIG. 5E * p<0.05; ** p<0.01.\nFIG. 9A: Body weights of mice injected with HT-29 tumor xenografts. Weights were measured at the start of the treatment to determine mouse toxicity. n.s. not significant, n=15 mice per group. FIG. 9B: Immunohistochemistry (IHC) analysis of MC38 tumors treated with AP-4-139B. Shown are representative images (4-6 random fields of view per condition from four independent tumors) of CD4^+ T cells. Respective IgG antibody was used as the negative control. Scale bars=100 μm. FIG. 9C: Quantification of FIG. 9B.\nAll studies were carried out in accordance with the recommendations in the Guide for the Care and Use of Laboratory Animals of the National Institutes of Health (NIH). All protocols were approved by The Wistar Institute Institutional Animal Care and Use Committee (IACUC). […] Tumor volumes were measured using digital calipers and tumor volume was calculated using the formula: volume=(length×width^2)×0.52. All mice were monitored daily for signs of pain or distress."}}, "data": [{"smiles": "c1ccc(-c2cn3nc(CCCCCC[P+](c4ccccc4)(c4ccccc4)c4ccccc4)sc3n2)cc1", "note": "[AP-4-139B, Triphenyl(6-(6-phenylimidazo[2,1-b][1,3,4]thiadiazol-2-yl)hexyl)phosphonium bromide]", "values": [{"measurement": "binding to sensor chips loaded with HSP70", "setting": "[1]", "value": "reproducibly bound in concentration-dependent manner"}, {"measurement": "brain penetrance", "setting": "Pharmacokinetics in mice", "value": "modest brain penetrance"}, {"measurement": "half-life in plasma", "setting": "Pharmacokinetics in mice", "value": "> five"}, {"measurement": "half-life", "setting": "Pharmacokinetics in mice; CDI, mouse, plasma", "value": "> 300", "unit": "min"}, {"measurement": "levels of mutant p53 and MRPS14 in MC38 cells", "setting": "mutant p53 and MRPS14", "value": "decreased levels"}, {"measurement": "CD4+ T cells in tumors (IHC)", "setting": "MC38 tumors", "value": "increase in CD4+ T cells"}, {"measurement": "infiltrating CD8+ T cells in tumors (IHC)", "setting": "MC38 tumors", "value": "large percentage of infiltrating CD8^+ T cells"}, {"measurement": "weight loss of mice during treatment", "setting": "MC38 tumors", "value": "no evidence of weight loss"}, {"measurement": "efficacy in syngeneic MC38 tumors", "setting": "MC38 tumors; p<0.001", "value": "significant efficacy as a single agent"}]}]}
